Test results reported in patent US12060347B2 (BRISTOL-MYERS SQUIBB COMPANY, priority 2016, dated 2024).

target: T1, human PAR4 (Homo sapiens, UniProt Q96RI0); assay: PAR4 FLIPR assay: antagonism of agonist-peptide-induced calcium mobilization in PAR4-expressing HEK293 cells; assay type: cell-based; conditions: H-Ala-Phe(4-F)-[…]NH2-induced intracellular calcium mobilization, 11-point curves
T1 construct: expressed in transfected cells; host or cells: HEK293 PAR4 Clone 1.2A (BMS Arctic ID 383940)
T1 sequence (Q96RI0 18-385): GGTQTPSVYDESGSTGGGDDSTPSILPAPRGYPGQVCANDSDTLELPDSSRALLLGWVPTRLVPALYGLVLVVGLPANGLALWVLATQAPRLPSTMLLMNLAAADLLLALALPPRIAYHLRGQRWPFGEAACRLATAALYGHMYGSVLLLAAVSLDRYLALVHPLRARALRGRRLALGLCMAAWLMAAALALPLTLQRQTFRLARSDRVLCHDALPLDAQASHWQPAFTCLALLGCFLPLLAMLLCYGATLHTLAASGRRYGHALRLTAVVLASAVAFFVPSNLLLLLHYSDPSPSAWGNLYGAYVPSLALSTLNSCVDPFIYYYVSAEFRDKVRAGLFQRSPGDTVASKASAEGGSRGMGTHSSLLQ

SMILES | IC50 [nM]
COc1cc(C(O)C2(C(F)(F)F)CCC2)c2nc(-c3cc(C)cc4nc(OC)cnc34)sc2c1 (single isomer, unassigned) [Example 664] | 0.9
COc1cnc2c(-c3nc4cc(F)c(O[C@@H](C)[C@@H](C)OC(=O)Nc5ccc(C(C)O)nc5)nc4s3)cc(C)cc2n1 (single isomer, unassigned) [Example 766] | 2.9
COc1cnc2c(-c3nc4cc(F)c(O[C@@H](C)[C@@H](C)OC(=O)Nc5ccc(C(C)O)nc5)nc4s3)cc(C)cc2n1 (single isomer, unassigned) [Example 767] | 3.4
COc1cnc2c(-c3nc4cc(F)c(O[C@@H](C)[C@@H](C)OC(=O)Nc5ccc(C(N)=O)nc5)cc4s3)cc(C)cc2n1 (stereo in doubt) [Example 391, (2R,3S)-3-((5-fluoro-2-(2-methoxy-7-methylquinoxalin-5-yl)benzo[d]thiazol-6-yl)oxy)butan-2-yl (6-carbamoylpyridin-3-yl)carbamate] | 2
COc1cnc2c(-c3nc4cc(F)c(O[C@@H](C)[C@@H](C)OC(=O)Nc5ccc(C(=O)NCCO)nc5)cc4s3)cc(C)cc2n1 (stereo in doubt) [Example 392, (2R,3S)-3-((5-fluoro-2-(2-methoxy-7-methylquinoxalin-5-yl)benzo[d]thiazol-6-yl)oxy)butan-2-yl (6-((2-hydroxyethyl)carbamoyl)pyridin-3-yl)carbamate] | 3.1
CNC(=O)c1cnc2c(-c3nc4cc(F)c(O[C@@H](C)[C@@H](C)OC(=O)Nc5cnc(C)nc5)cc4s3)cc(C)cc2n1 (stereo in doubt) [Example 393, (2R,3S)-3-((5-fluoro-2-(7-methyl-2-(methylcarbamoyl)quinoxalin-5-yl)benzo[d]thiazol-6-yl)oxy)butan-2-yl (2-methylpyrimidin-5-yl)carbamate] | 30
Cc1cc(-c2cc3ccccc3o2)c2ncc(OC(F)F)nc2c1 [Example 1, 5-(benzofuran-2-yl)-2-(difluoromethoxy)-7-methylquinoxaline] | 29
COc1ccc2oc(-c3cc(C)cc4nc(OC(F)F)cnc34)cc2c1 [Example 2, 2-(difluoromethoxy)-5-(5-methoxybenzofuran-2-yl)-7-methylquinoxaline] | 11
Cc1cc(-c2nc3ccccc3o2)c2ncc(OC(F)F)nc2c1 [Example 3, 2-(2-(difluoromethoxy)-7-methylquinoxalin-5-yl)benzo[d]oxazole] | 240
Cc1cc(-c2nc3ccccc3s2)c2ncc(OC(F)F)nc2c1 [Example 4, 2-(2-(difluoromethoxy)-7-methylquinoxalin-5-yl)benzo[d]thiazole] | 17
Cc1cc(-c2cc3ccccc3[nH]2)c2ncc(OC(F)F)nc2c1 [Example 5, 2-(difluoromethoxy)-5-(1H-indol-2-yl)-7-methylquinoxaline] | 880
COc1ccc2oc(-c3cc(C)cc4nc(OC(F)F)cnc34)cc2c1OC [Example 6, 2-(difluoromethoxy)-5-(4,5-dimethoxybenzofuran-2-yl)-7-methylquinoxaline] | 130
Cc1cc(-c2nc3ccc(OCc4ccccc4)cc3s2)c2ncc(OC(F)F)nc2c1 [Example 7, 6-(benzyloxy)-2-(2-(difluoromethoxy)-7-methylquinoxalin-5-yl)benzo[d]thiazole] | 800
Cc1cc(-c2nc3c(Cl)cccc3s2)c2ncc(OC(F)F)nc2c1 [Example 8, 4-chloro-2-(2-(difluoromethoxy)-7-methylquinoxalin-5-yl)benzo[d]thiazole] | 8.1
Cc1cc(-c2nc3ncccc3s2)c2ncc(OC(F)F)nc2c1 [Example 9, 2-(2-(difluoromethoxy)-7-methylquinoxalin-5-yl)thiazolo[4,5-b]pyridine] | 220
COc1cc(C)c2nc(-c3cc(C)cc4nc(OC(F)F)cnc34)sc2c1 [Example 10, 2-(2-(difluoromethoxy)-7-methylquinoxalin-5-yl)-6-methoxy-4-methylbenzo[d]thiazole] | 2.2
Cc1cc(-c2nc3c(s2)CN(C(=O)OC(C)(C)C)CC3)c2ncc(OC(F)F)nc2c1 [Example 11, tert-butyl 2-(2-(difluoromethoxy)-7-methylquinoxalin-5-yl)-6,7-dihydrothiazolo[5,4-c]pyridine-5(4H)-carboxylate] | 1700
COc1ccc(C)c2nc(-c3cc(C)cc4nc(OC(F)F)cnc34)sc12 [Example 12, 2-(2-(difluoromethoxy)-7-methylquinoxalin-5-yl)-7-methoxy-4-methylbenzo[d]thiazole] | 2
COc1c(F)cc(F)c2nc(-c3cc(C)cc4nc(OC(F)F)cnc34)sc12 [Example 13, 2-(2-(difluoromethoxy)-7-methylquinoxalin-5-yl)-4,6-difluoro-7-methoxybenzo[d]thiazole] | 3.5
Cc1cc(-c2nc3cccc(NC(=O)OC(C)(C)C)c3s2)c2ncc(OC(F)F)nc2c1 [Example 14, tert-butyl (2-(2-(difluoromethoxy)-7-methylquinoxalin-5-yl)benzo[d]thiazol-7-yl) carbamate] | 6.8
Cc1cc(-c2nc3cccc(OCc4cscn4)c3s2)c2ncc(OC(F)F)nc2c1 [Example 15, 2-(2-(difluoromethoxy)-7-methylquinoxalin-5-yl)-7-(thiazol-4-ylmethoxy)benzo[d]thiazole] | 38
Cc1cc(-c2nc3ccc(OCCNC(=O)OC4CCOC4)cc3s2)c2ncc(OC(F)F)nc2c1 (stereo not shown) [Example 16, tetrahydrofuran-3-yl (2-((2-(2-(difluoromethoxy)-7-methylquinoxalin-5-yl)benzo[d]thiazol-6-yl)oxy)ethyl)carbamate] | 80
Cc1cc(-c2nc3cccc(OCCOc4ccccc4)c3s2)c2ncc(OC(F)F)nc2c1 [Example 17, 2-(2-(difluoromethoxy)-7-methylquinoxalin-5-yl)-7-(2-phenoxyethoxy)benzo[d]thiazole] | 13
Cc1cc(-c2nc3cccc(OCCOCc4ccccc4)c3s2)c2ncc(OC(F)F)nc2c1 [Example 18, 7-(2-(benzyloxy)ethoxy)-2-(2-(difluoromethoxy)-7-methylquinoxalin-5-yl) benzo[d]thiazole] | 98
Cc1cc(-c2nc3ccc(OCCNC(=O)OCC4CCCO4)cc3s2)c2ncc(OC(F)F)nc2c1 (stereo not shown) [Example 19, (Tetrahydrofuran-2-yl)methyl (2-((2-(2-(difluoromethoxy)-7-methylquinoxalin-5-yl)benzo[d]thiazol-6-yl)oxy)ethyl)carbamate] | 41
Cc1cc(-c2nc3ccc(OCCNC(=O)OC4CCOCC4)cc3s2)c2ncc(OC(F)F)nc2c1 [Example 20, tetrahydro-2H-pyran-4-yl (2-((2-(2-(difluoromethoxy)-7-methylquinoxalin-5-yl)benzo[d]thiazol-6-yl)oxy)ethyl)carbamate] | 30
Cc1cc(-c2nc3cccc(NC(=O)OC4CCOCC4)c3s2)c2ncc(OC(F)F)nc2c1 [Example 21, tetrahydro-2H-pyran-4-yl (2-(2-(difluoromethoxy)-7-methylquinoxalin-5-yl)benzo[d]thiazol-7-yl)carbamate] | 3.3
Cc1cc(-c2nc3cccc(NC(=O)OCC4CCCO4)c3s2)c2ncc(OC(F)F)nc2c1 (stereo not shown) [Example 22, (Tetrahydrofuran-2-yl)methyl (2-(2-(difluoromethoxy)-7-methylquinoxalin-5-yl)benzo[d]thiazol-7-yl)carbamate] | 1.8
